The subject of data set [1] is transporters at major organ sites. Briefly: Prediction of transporter-mediated inhibition / DDI potential. Also on record: species or system human. As to conditions: of 11 transporters; FDA criteria.
Data set [2] addresses T1, human OAT3 (Homo sapiens, UniProt Q8TCC7).
T1 sequence (Q8TCC7 1-542): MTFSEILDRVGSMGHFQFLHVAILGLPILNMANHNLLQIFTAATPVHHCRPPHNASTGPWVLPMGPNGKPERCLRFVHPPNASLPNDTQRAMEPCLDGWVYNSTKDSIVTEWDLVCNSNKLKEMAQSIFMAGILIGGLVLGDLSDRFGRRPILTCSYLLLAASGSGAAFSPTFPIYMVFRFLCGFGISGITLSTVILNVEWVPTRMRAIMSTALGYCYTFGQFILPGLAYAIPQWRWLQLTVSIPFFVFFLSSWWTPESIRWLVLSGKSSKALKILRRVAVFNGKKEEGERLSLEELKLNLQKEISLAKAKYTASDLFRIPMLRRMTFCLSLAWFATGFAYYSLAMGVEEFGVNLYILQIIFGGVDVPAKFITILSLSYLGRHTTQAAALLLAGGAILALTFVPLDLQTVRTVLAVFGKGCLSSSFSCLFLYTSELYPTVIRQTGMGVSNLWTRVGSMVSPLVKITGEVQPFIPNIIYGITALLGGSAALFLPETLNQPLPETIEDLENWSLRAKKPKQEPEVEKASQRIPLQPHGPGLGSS
As to conditions: human.

The target in data set [3] is T2, human OCT1 (Homo sapiens, UniProt O15245).
T2 sequence (O15245 1-554): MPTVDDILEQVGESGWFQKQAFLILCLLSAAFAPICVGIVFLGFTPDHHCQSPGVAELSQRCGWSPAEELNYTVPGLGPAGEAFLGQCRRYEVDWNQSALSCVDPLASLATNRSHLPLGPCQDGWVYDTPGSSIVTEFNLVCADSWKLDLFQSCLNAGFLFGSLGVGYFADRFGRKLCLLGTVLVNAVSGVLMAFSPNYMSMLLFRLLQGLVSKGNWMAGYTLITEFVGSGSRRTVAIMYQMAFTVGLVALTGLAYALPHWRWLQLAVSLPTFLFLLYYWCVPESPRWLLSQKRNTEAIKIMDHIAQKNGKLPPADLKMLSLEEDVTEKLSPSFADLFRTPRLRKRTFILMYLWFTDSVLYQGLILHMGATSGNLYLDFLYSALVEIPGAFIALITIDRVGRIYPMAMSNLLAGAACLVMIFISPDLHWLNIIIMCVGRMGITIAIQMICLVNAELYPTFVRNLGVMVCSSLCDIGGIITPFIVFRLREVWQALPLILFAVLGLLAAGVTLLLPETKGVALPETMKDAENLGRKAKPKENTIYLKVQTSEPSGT
Description: cell-based.

A further data set concerns the target T3, human MATE1 (Homo sapiens, UniProt Q96FL8).
T3 sequence (Q96FL8 1-570): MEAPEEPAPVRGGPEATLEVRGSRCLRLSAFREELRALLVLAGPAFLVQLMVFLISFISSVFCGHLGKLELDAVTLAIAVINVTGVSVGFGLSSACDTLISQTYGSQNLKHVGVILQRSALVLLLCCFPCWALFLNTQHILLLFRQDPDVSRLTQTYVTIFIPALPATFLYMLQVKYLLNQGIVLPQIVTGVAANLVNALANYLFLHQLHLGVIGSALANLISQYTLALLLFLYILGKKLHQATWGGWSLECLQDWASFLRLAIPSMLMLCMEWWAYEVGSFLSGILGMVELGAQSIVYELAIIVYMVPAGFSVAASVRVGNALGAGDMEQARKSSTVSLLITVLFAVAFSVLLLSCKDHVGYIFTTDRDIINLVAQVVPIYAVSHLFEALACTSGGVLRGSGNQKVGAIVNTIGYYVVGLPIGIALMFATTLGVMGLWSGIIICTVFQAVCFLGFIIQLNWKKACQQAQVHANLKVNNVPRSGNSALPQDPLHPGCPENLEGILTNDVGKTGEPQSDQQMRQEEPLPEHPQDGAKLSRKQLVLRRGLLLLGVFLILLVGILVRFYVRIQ
Description: cell-based.

The target of a further data set is human MATE2 (Homo sapiens, UniProt Q86VL8). Briefly: cell-based.
The target in a further data set is T4, human OAT1 (Homo sapiens, UniProt Q4U2R8).
T4 sequence (Q4U2R8 1-563): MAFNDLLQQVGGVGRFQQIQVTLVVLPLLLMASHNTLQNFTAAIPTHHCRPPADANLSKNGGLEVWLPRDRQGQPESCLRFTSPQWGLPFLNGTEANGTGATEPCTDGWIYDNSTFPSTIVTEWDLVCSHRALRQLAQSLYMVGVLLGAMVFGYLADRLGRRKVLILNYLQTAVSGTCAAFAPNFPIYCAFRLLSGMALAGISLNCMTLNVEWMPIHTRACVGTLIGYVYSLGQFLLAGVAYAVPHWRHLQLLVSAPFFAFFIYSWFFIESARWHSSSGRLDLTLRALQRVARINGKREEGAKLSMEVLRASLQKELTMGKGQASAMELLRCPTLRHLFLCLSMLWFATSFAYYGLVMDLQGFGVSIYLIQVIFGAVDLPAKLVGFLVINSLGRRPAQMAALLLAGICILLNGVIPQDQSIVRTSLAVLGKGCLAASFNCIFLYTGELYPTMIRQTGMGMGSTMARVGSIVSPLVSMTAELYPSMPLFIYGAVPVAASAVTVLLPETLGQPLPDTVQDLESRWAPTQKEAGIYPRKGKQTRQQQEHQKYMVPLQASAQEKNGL
Description: cell-based.

For data set [4], the target named is T1, human OAT3. Description: cell-based.
A further data set concerns the target P-gp (Homo sapiens, UniProt P08183). Briefly: biochemical.
Data set [5] addresses T5, BCRP (Homo sapiens, UniProt Q9UNQ0).
T5 sequence (Q9UNQ0 1-655): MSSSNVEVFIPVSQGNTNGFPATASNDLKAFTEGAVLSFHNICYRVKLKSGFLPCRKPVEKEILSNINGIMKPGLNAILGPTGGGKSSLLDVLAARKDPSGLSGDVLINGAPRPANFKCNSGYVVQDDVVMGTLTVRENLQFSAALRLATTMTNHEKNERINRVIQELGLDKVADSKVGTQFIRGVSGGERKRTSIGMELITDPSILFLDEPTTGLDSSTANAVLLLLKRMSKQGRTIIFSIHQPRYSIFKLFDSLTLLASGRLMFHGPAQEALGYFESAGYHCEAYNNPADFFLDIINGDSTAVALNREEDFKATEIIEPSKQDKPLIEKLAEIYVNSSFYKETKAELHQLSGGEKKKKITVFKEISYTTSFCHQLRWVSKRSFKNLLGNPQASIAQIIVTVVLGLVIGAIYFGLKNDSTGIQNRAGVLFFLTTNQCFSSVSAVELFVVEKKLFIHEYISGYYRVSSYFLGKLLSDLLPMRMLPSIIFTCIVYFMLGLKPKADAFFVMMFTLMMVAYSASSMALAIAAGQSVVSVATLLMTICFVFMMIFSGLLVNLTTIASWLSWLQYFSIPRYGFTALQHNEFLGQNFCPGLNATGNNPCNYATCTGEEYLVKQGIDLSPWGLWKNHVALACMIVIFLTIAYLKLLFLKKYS
Briefly: biochemical.

The target in a further data set is T6, human OATP2B1 (Homo sapiens, UniProt O94956).
T6 sequence (O94956 1-709): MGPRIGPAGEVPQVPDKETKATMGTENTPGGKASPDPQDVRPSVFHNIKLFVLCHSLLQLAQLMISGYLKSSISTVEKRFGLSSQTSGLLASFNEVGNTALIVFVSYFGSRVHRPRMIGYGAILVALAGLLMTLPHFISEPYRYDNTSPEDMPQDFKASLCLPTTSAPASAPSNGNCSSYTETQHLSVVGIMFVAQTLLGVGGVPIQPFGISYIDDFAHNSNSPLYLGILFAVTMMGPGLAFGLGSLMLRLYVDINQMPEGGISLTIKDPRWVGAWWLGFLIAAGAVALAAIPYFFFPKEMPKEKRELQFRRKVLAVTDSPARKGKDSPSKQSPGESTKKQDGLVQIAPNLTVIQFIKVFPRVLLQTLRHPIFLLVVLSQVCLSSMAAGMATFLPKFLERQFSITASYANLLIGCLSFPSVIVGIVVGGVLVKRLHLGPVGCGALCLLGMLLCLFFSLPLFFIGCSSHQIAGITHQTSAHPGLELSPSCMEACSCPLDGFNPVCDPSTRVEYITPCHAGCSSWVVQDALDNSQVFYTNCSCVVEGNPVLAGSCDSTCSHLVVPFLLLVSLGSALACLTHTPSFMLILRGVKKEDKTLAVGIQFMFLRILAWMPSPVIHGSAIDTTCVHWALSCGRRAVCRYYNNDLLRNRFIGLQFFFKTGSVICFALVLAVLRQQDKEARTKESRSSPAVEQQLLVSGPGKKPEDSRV
Description: cell-based. As to conditions: IC50 OATP2B1, experimental, mean ± SD; stable cells; substrate ES.

Another data set addresses T7, human OATP1B1 (Homo sapiens, UniProt Q9Y6L6).
T7 sequence (Q9Y6L6 1-691): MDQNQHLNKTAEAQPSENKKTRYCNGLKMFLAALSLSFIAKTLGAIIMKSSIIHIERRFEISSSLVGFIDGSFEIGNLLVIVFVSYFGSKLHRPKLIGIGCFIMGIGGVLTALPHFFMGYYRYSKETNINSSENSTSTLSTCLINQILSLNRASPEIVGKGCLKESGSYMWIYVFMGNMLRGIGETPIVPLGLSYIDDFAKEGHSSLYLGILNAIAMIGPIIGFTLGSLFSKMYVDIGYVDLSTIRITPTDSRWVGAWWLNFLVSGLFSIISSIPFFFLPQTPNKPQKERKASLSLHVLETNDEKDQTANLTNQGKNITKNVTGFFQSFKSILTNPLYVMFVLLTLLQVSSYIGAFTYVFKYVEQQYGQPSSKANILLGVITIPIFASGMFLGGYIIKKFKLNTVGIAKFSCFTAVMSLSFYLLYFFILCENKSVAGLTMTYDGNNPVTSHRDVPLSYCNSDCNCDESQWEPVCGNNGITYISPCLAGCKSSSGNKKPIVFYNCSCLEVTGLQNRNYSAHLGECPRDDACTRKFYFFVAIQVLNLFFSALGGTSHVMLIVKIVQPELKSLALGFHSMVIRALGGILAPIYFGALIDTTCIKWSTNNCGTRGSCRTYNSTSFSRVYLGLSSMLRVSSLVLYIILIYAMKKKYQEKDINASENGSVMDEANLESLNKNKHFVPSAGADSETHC
Conditions: inhibits EG at one-tenth (or lower) the concentration that inhibits ES.

The target of data set [6] is T2, human OCT1. Conditions: human.
Data set [7] addresses T5, BCRP. Conditions: cited from earlier work.

Marks after values point to notes of the source that are not given here.

This is an account of results in publication PMC8217266 (Clinical Pharmacology and Therapeutics, 2021).

By IC50 is commonly meant the point on the concentration scale where inhibition reaches its midpoint.

Chain of P-gp (P08183 whole entry): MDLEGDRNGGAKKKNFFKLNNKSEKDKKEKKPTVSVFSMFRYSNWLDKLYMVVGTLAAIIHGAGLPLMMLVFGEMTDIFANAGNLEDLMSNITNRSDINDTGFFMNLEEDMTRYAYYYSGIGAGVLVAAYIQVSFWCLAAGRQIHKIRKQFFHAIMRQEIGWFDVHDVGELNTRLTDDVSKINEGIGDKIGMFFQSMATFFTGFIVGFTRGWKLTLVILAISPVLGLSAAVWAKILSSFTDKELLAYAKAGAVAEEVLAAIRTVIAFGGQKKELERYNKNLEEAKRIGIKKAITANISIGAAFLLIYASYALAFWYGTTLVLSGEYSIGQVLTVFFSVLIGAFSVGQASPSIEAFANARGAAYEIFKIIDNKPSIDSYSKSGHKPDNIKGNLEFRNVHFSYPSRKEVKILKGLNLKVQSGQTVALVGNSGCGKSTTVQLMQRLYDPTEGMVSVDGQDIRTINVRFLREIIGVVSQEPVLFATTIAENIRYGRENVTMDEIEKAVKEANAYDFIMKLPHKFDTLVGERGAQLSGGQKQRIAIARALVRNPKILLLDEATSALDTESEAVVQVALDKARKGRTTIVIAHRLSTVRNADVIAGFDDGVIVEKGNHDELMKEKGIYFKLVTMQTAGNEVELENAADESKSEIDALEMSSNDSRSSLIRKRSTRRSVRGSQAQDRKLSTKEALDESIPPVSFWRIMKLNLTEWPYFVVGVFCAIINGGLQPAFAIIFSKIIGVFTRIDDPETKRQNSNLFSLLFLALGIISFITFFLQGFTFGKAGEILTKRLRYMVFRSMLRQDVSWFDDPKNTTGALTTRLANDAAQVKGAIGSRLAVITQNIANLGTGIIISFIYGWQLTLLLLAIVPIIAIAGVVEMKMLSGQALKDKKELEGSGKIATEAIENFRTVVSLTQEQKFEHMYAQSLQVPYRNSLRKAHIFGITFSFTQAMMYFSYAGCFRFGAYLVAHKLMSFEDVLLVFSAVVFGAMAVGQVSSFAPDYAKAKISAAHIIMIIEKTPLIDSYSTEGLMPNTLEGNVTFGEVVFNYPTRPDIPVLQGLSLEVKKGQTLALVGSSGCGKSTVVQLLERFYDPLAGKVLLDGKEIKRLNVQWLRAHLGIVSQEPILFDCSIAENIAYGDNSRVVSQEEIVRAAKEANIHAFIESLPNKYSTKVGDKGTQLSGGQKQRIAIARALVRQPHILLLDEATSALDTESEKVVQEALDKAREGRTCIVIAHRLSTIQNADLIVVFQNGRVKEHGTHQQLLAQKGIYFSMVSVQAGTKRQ
Chain of human MATE2 (Q86VL8 1-566 isoform Q86VL8-3): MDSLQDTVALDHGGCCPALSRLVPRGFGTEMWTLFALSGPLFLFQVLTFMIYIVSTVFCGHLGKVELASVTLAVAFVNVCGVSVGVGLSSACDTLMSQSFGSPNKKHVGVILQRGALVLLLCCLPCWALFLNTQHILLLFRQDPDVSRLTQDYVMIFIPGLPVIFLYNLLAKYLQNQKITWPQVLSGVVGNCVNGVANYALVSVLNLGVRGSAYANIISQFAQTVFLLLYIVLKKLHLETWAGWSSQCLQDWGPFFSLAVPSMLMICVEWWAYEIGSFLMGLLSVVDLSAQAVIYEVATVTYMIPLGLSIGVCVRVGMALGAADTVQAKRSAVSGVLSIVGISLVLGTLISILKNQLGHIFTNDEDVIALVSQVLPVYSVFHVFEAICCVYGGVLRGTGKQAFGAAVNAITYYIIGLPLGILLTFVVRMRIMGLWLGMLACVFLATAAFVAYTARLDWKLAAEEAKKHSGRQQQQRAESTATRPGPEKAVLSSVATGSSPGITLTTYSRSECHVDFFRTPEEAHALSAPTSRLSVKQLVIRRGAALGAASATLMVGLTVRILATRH

On to `NC(=O)c1nc(F)c[nH]c1=O` [Favipiravir], for which the “No. of transporters at major organ sites inhibited at clinical concentrations” value in data set [1] is given as 3. The “Cu,max/IC50 OAT3” value at human OAT3 [2] turned out to be 3.21. In addition, the IC50 was greater than 100 µM on human OCT1 [3]; greater than 100 µM against human MATE1; greater than 100 µM against human MATE2; 52 µM at human OAT1; 84.2 ± 19.5 µM on human OAT3 [4]; 55 µM against P-gp. For the same molecule, the IC50 against BCRP [5] is greater than 100 µM.
Turning to `Cc1oncc1C(=O)Nc1ccc(C(F)(F)F)cc1` [Leflunomide], the “No. of transporters at major organ sites inhibited at clinical concentrations” value in data set [1] is 2. The IC50 against human OATP2B1 was 81.9 ± 36.1 µM; at human OCT1 [3], greater than 100 µM; at human MATE1 it was 9.5 ± 5.5 µM; against human OAT1, greater than 100 µM; on P-gp, greater than 100 µM.
Take `CCCCc1nc(Cl)c(CO)n1Cc1ccc(-c2ccccc2-c2nn[nH]n2)cc1` [Losartan]: the “No. of transporters at major organ sites inhibited at clinical concentrations” value in [1] is on record as 4. Besides, the “potency difference of the inhibitor for [3H]-EG vs [3H]-ES as OATP1B1 probes” value at human OATP1B1 is greater than 10 fold. The “Cu,max/IC50 OAT3” value at human OAT3 [2] is listed as 0.02 ^a. The IC50 at human OATP2B1 is 2.5 ± 0.7 µM; against human OCT1 [3] it was greater than 100 µM; on human MATE2, greater than 100 µM; on P-gp, greater than 100 µM; on BCRP [5], 4.8 ± 1.1 µM.
Regarding `COc1ccc2cc1Oc1ccc(cc1)C[C@H]1c3cc(c(OC)cc3CCN1C)Oc1c(OC)c(OC)cc3c1[C@H](C2)N(C)CC3` [Tetrandrine], the “No. of transporters at major organ sites inhibited at clinical concentrations” value in data set [1] was 1. Further, the “Iu,in,max/IC50 OCT1” value at human OCT1 [6] came out at 0.02. Moreover, the IC50 was 8.6 µM against human OCT1 [3]; 1.2 ± 0.2 µM at human MATE1; greater than 10 µM against human MATE2; greater than 10 µM at human OAT1; greater than 10 µM on human OAT3 [4]; 3.8 ± 1.1 µM against P-gp. At BCRP [5], the IC50 was greater than 10 µM.
With `O=C1CCC(N2C(=O)c3ccccc3C2=O)C(=O)N1` (stereo not shown) [Thalidomide], the “No. of transporters at major organ sites inhibited at clinical concentrations” value in data set [1] is 1. The “Cu,max/IC50 OAT3” value on human OAT3 [2] is recorded as 0.08. Moreover, the IC50 on human OCT1 [3] was greater than 100 µM; against human MATE1, greater than 100 µM; at human MATE2, greater than 100 µM; on human OAT1, greater than 100 µM; on human OAT3 [4], 54.6 ± 2.4 µM; at P-gp, 65 µM. The molecule further came in with an IC50 against BCRP [5] greater than 100 µM.
On to `CN1CC(=O)N2[C@H](c3ccc4c(c3)OCO4)c3[nH]c4ccccc4c3C[C@@H]2C1=O` [tadalafil], for which the “inhibition of BCRP (in words)” value on BCRP [7] was “weak inhibitors of BCRP”.
Consider `CCCc1nc(C)c2c(=O)[nH]c(-c3cc(S(=O)(=O)N4CCN(CC)CC4)ccc3OCC)nn12` [vardenafil], for which the “inhibition of BCRP (in words)” value on BCRP [7] is “weak inhibitors of BCRP”.
